These results are taken from patent US20060073156A1, “Fosfomycin and n-acetylcysteine for the treatment of biofilms caused by escheric ia coli and other pathogens of the urinary tract” (ZAMBON GROUP S.P.A., priority 2002, published 2006).

Assay [1] relates to Escherichia coli cells of the biofilm. The assay can be described thus: Bacterial viability of biofilm cells: sonication, seeding, count of viable units (CFU/ml). It is filed as cell-based. The note with it: for inhibition at 2000 µg/mL: Escherichia coli, fosfomycin 2000 mg/l alone, read-out: reductions in viable units. How it is done: (§1) The effects of NAC and fosfomycin on the biofilm produced by Escherichia coli have been evaluated on four strains designated 169, 255, 1263 and 1293, from the Microbiological Collection of the Genua University.
At the same time the biofilms treated in this way were submitted to sonication in order to disperse the cells that were still adhering, which were seeded on rich medium after suitable dilution for calculating the viable units that survived the various treatments.

Assay [2] deals with biofilm produced by Escherichia coli. The assay can be described thus: Formation of biofilm, Crystal Violet staining in polystyrene microplates, measured at 492 nm. It is filed as cell-based. The following applies: various concentrations of NAC added to the cultures; three strains out of four. Here is the method: as §1
(§2) Formation of the biofilms was measured spectrophotometrically in U-bottom polystyrene microplates (Corning Incorporated, NY).
In more detail, the effect of NAC on the formation of biofilms was evaluated as follows: overnight cultures in Tryptic Soy Broth (TSB) with addition of glucose (0.25%). (TSBG) were diluted 1:100 in TSBG. These suspensions (100 μl each) were added to suitable dilutions of NAC at concentrations ranging from 8 mg/ml to 0.007 mg/ml respectively. After incubation at 37° C. for 24 hours, the microplates were washed three times with 10 mM phosphate buffer pH 7.4 (PBS), treated with Bouin fixative and then stained with Crystal Violet (0.01%).
(§3) The biofilm adhering to the walls of the microplates was collected via washing with PBS, suspended in 10% sarbosyl and measured spectrophotometrically at 492 nm.

A further assay concerns Escherichia coli. Kind of assay: Bacterial growth of cultures with NAC added. The assay is classed as cell-based. The note with it: various concentrations of NAC added to the cultures; all E. coli strains tested.
In assay [3] the test system is biofilms of P. aeruginosa. The following applies: Antimicrob. Agents Chemother., 35, 1258, (1991); cited from earlier work.
The next assay concerns S. epidermidis. The following applies: J. Ant. Chem., 39, 643, (1997); cited from earlier work.
Assay [4] deals with biofilm produced by Escherichia coli. The assay can be described thus: Disruption of biofilms: residual quantity of biofilm after treatment of initial (5 hours) and fully consolidated (48 hours) biofilms. It is filed as cell-based. The note with it: NAC alone; for reduction of mature biofilms: mature (48 hours) biofilms. How it is done: as §1, §2, §3
The same method was used for calculating the residual quantity of biofilm after treatment with NAC and fosfomycin, alone or associated, on Escherichia coli. For this purpose, biofilms with two different degrees of maturity: initial (5 hours) and fully consolidated (48 hours) were exposed to appropriate concentrations of NAC (from 8 mg/ml to 0.007 mg/ml) with addition of fosfomycin at the concentrations attainable in vivo in the urine.

Where “and” joins values, the source holds several entries; their conditions need not be identical. Identical values can stand only once. Like-named read-outs stand apart in the source and are kept apart here.

`C[C@@H]1O[C@@H]1P(=O)(O)O` [fosfomycin, Fosfomycin]: the results for the inhibition at 2000 µg/mL in assay [1] (fully consolidated biofilms) and in assay [1] (initial biofilms) were 36 to 85.7% and 98 to 99.5%, respectively. Further, the “reductions in CFU/ml” value in assay [1] (fosfomycin 128 mg/l alone) is reported as “less than 1 logarithm”.

As for `CC(=O)N[C@@H](CS)C(=O)O` [NAC, N-acetylcysteine], in assay [2], the “reductions in biofilm (formation)” value is recorded as “greater than 50%”. For the same compound, the “changes in bacterial growth” value in the assay with Escherichia coli is “did not cause appreciable changes”. Further, the “ability to disrupt biofilms” value in assay [3] is “ability to disrupt biofilms”. Besides, the “inhibition of biofilm formation” value in the assay with S. epidermidis was “inhibit their formation”. For the same compound, the “reduction of initial biofilms” value in assay [4] (initial (5 hours) biofilms, strains not named) was 51.7% and 64.0% and 58.4%. The “reduction of mature biofilms” value is 25.2% in assay [4] (Escherichia coli 169); 64.3% and 60.2% and 67.7% in assay [4] (three strains out of four).
